Experimental data: article PMC10300102, “In vivo inhibition of nuclear ACE2 translocation protects against SARS-CoV-2 replication and lung damage through epigenetic imprinting” (Nature Communications, 2023)
Structures can show the parent of a compound that is named as a salt. Where two headings read alike, the source gives them in different places.

Test: In vitro monkey plasma assay
Assay type: in vitro ADME, cynomolgus monkey
Details: for remaining at 0.25 h, 2 µM: time 15 min; for remaining at 0.5 h, 2 µM: time 30 min; for remaining at 1 h, 2 µM: time 60 min; for remaining at 2 h, 2 µM: time 120 min
Procedure: Briefly, pooled frozen plasma was thawed at 37 °C prior to experiments. Plasma was centrifuged at 3720 x g for 5 min and any clots were removed. All blanks and working solutions were aliquoted on an Apricot automation workstation (2 μL/well of working solution (100 μM) with 98 μL plasma for NACE2i peptide (CP300638) and control compounds somatostatin acetate and procaine hydrochloride). All reaction plates containing mixtures of NACE2i, somatostatin acetate, and procaine hydrochloride and plasma were incubated at 37 °C in a water bath for 0, 15, 30, 60, 120, 240, and 360 min. Incubation was stopped with 4% H3PO4 and stop solution (200 ng/mL tolbutamide and 200 ng/mL labetalol in MeOH) to precipitate protein. Each plate was sealed and shaken for 20 min and then centrifuged at 3720 x g at 4 °C for 20 min. After centrifugation, the Apricot workstation was used to transfer 150 μL supernatant to each bioanalysis plate, which was then sealed and shaken for 10 min prior to LC-MS/MS analysis as per the manufacturer’s guidelines. LC: Shimadzu LC 30-AD, MS: QTRAP 6500 + , Autosampler: CTC PAL.

[1] = male, monkey, pooled plasma, cynomolgus monkey plasma, n=2
[2] = monkey, plasma (pooled, frozen), cynomolgus monkey plasma, n=2

Row | SMILES | % Remaining (cynomolgus monkey plasma, time 0 min, n=2) | remaining at 0.25 h, 2 µM [1] | remaining at 0.5 h, 2 µM [1] | remaining at 1 h, 2 µM [1] | remaining at 2 h, 2 µM [1] | remaining at 6 h, 2 µM (male, monkey, pooled plasma, cynomolgus monkey plasma, time 360 min, n=2, read-out: % Remaining) | remaining at 6 h, 2 µM (male, monkey, pooled plasma, pooled male cynomolgus monkey plasma, 2 µL of 100 µM working solution + 98 µL plasma, 37 °C, 360 min, LC-MS/MS, read-out: % remaining in plasma after 360 min incubation) | remaining at 0.25 h, 2 µM [2] | remaining at 0.5 h, 2 µM [2] | remaining at 1 h, 2 µM [2] | remaining at 2 h, 2 µM [2] | remaining at 4 h, 2 µM (monkey, plasma (pooled, frozen), cynomolgus monkey plasma, time 240 min, n=2) | remaining at 6 h, 2 µM (monkey, plasma (pooled, frozen), cynomolgus monkey plasma, time 360 min, n=2, read-out: % Remaining) | % remaining in plasma after 360 min incubation (pooled male cynomolgus monkey plasma, 2 µL of 100 µM working solution + 98 µL plasma, 37 °C, 360 min, LC-MS/MS)
1 | CCN(CC)CCOC(=O)c1ccc(N)cc1 [procaine hydrochloride, reference compound] | 100% | 27.3% | 3.07% | 0.813% | 0.381% | 0.0209% | 0% |  |  |  |  |  |  | 
2 | C[C@H](N)C(=O)NCC(=O)N[C@H]1CSSC[C@@H](C(=O)O)NC(=O)[C@H](CO)NC(=O)[C@H]([C@@H](C)O)NC(=O)[C@H](Cc2ccccc2)NC(=O)[C@H]([C@@H](C)O)NC(=O)[C@H](CCCCN)NC(=O)[C@H](Cc2c[nH]c3ccccc23)NC(=O)[C@H](Cc2ccccc2)NC(=O)[C@H](Cc2ccccc2)NC(=O)[C@H](CC(N)=O)NC(=O)[C@H](CCCCN)NC1=O [somatostatin acetate, reference compound] |  |  |  |  |  |  |  | 77.1% | 61.3% | 50.2% | 29% | 18.1% | 3.81% | 3.8%
